From patent publication US5108916A, “Process for stereoselectively hydrolyzing, transesterifying or esterifying with immobilized isozyme of lipase from Candida rugosa” (priority 1989, dated 1992)
Where two headings read alike, the source gives them in different places.

Tested on: CSC-2
Test: Effect of additives and solvents on hydrolysis of ketoprofen monoglyceride by CSC-2
Assay type: biochemical, Candida rugosa
Details: for % ee S-acid: 23 hr, 200 ul
Protocol: Hydrolysis of ketoprofen-monoglyceride (50mg) was carried out in various DMF-100mM (NH4)H2 PO4 buffer (pH 5.5) mixtures. In each flask a solution of ketoprofen monoglyceride (50mg) in DMF (200ul) was added. DMF was added followed by 100mM (NH4)H2 PO4 buffer. […] After 22 hours, 2%, 5%, and 10% DMF samples were acidified, extracted with CHCl3 (2×10ml) and analyzed. The other samples were analyzed directly as in Example 18. The acid produced decreases with increasing amount of DMF.
Small amounts of DMF were added to the reaction mixture to increase the solubility of KPG. In all cases 100mM ammonium phosphate buffer (pH 5.5) was used and 2% (v/v) detergents were added and the total volume was 10ml.
The buffer reaction (entry #2 in the table) contained enzyme in buffer (2 ml) and the buffer only (entry #1 in the table) reaction contained no enzyme.
The presence of a surfactant like Tween increases the solubility o lipophilic compounds in water. […] Tween 80 was added to make 1% and 2% solution (v/v). Bovine serum albumin (BSA) (10mg) was added to each of two flasks. A solution of 50mg of ketoprofen monoglyceride in 200ul DMF was added to each. After 20 hours at 250 rpm and 35° C. the reaction mixtures were acidified, extracted and analyzed by the usual HPLC procedure as in Example 18.
Various surfactants were used at 2% of the reaction volume to determine their effect on the enzymatic reaction involving the conversion of ketoprofen monoglyceride (KPG) to ketoprofen (KP). […] Flasks were covered with parafilm and incubated in a 35° C. water bath at 250 rpm, typically overnight. Reactions were stopped by acidification, extracted with CHCl3 (2×10 ml). The %acid and %ee were determined by the method of Example 18. It is to be noted that Hydrophile-Lipophile Balance (HLB) values have no apparent bearing on the ability of the surfactant to enhance the conversion of KPG to KP.
75 mg of KPG (in the absence of DMF) was individually weighed into 50 ml Erlenmeyer flasks. […] 9 ml of 100 mM (NH4)H2 PO4, pH 5.5 buffer was added, and the flasks were placed into a 35° C., 250 rpm water bath incubator for 20 hours. The reactions were acidified, extracted with CHCl3 and examined by HPLC as in Example 18. The %ee was determined as per Example 18.
Various amounts of oleic acid or its esters were added, and the reactions stopped at the times indicated, acidified, extracted with CHCl3 and analyzed as in Example 18.
An experiment was performed as in Example 41, but using 100, 200 and 500 ul of olive oil to determine if it would enhance the rate of conversion of KPG to KP. […] After 20 hours, all reactions were acidified, extracted with CHCl3 and analyzed by HPLC as in Example 18. The results are given below:
50 mg of KPG was weighed into Erlenmeyer flasks. […] Flasks were incubated at 35° C., 250 rpm for 23 hours. The reactions were stopped by acidification, extracted with CHCl3, and analyzed by HPLC as in Example 18. The additive is listed along with its percentage composition of glycerides of oleic acid.
To determine the problems associated with having oleic acid or oleate. esters in the reaction media, the following experiment was performed. […] Flasks were placed in a 35° C. incubator at 250 rpm, and the reactions were sampled by taking 200 ul aliquots at various time points. These aliquots were analyzed by HPLC (ODS-3 RAC column, CH3 OH: 10 mM (NH4)H2 PO4 (60:40) eluant, 4 ml/min, 254 nm detection) to determine the course of reaction. When approximately 40% acid was produced, the reactions were stopped by placing the flasks in the -70° C. freezer. Two extraction procedures were utilized to determine the best method of isolating S-Ketoprofen free of oleic acid. The first (listed as Extraction Procedure I in the following table) involved first making the solution basic (pH 10) with NaOH, then extracting with hexane, then CHCl3.

[1] = solvent/buffer 1:1 two phase, 16 hour reactions
[2] = solvent/buffer 1:1 two phase, 26 hours, buffer = 100
[3] = 200 ul DMF, b1067-b1069 18 hr, b1070-b1084 23 hr, amounts: 200 ul except tributyrin, dilinolein, trilinoein 100 ul, monostearin, distearin 25 ul, tristearin 28 ul, 0 = CSC-2 alone
[4] = 18 hr with 100 ul (b930-b936), 23 hr with 200 ul (b937-b944), None = CSC-2 alone
[5] = 5 g KPG, 50 mg CSC-2, 5 grams additive
[6] = surfactant 2% of reaction volume, 200 ul DMF, enzyme alone = 100

Molecule: CCC(=O)CC [3-Pentanone]
- Relative Rate [1]: 0

Molecule: OCc1ccccc1 [Benzyl alcohol]
- Relative Rate [1]: 0

Molecule: ClC(Cl)Cl [Chloroform]
- Relative Rate (pH 5.5, 960 min): 0

Molecule: O=C1CCCCC1 [Cyclohexanone]
- Relative Rate [1]: 0

Molecule: ClCCl [Dichloromethane]
- Relative Rate [1]: 0

Molecule: CCOC(C)=O [Ethyl acetate]
- Relative Rate [1]: 0

Molecule: CCOCC [Ethyl ether]
- Relative Rate (pH 5.5, 960 min): 0

Molecule: CCc1ccccc1 [Ethylbenzene]
- EE of S-acid: 48%
- Relative Rate [2]: 18

Molecule: ClCCCl [Ethylene dichloride]
- Relative Rate [1]: 0

Molecule: CC(C)OC(C)C [Isopropyl ether]
- EE of S-acid (solvent/buffer 1:1 two phase, 26 hours): 69%
- Relative Rate [2]: 53

Molecule: CCCCC/C=C\C/C=C\CCCCCCCC(=O)OCC [Linoleic acid ethyl ester]
- % Acid [3]: 26%

Molecule: CCCCCCCC/C=C\CCCCCCCC(=O)OCC(O)CO (centres unmarked) [Monolein]
- % Acid [4]: 43%
- Rate (as E158): 4

Molecule: CC(=O)OCC(COC(C)=O)OC(C)=O [Triacetin]
- % Acid [3]: 12%

Molecule: CCCCC/C=C\C/C=C\CCCCCCCC(=O)OCC(O)COC(=O)CCCCCCC/C=C\C/C=C\CCCCC [dilinolein]
- % Acid [3]: 20%

Molecule: CCCCCCCCCCCCCCCCCC(=O)OCC(O)COC(=O)CCCCCCCCCCCCCCCCC [distearin]
- % Acid [3]: 30%

Molecule: CCCCC/C=C\C/C=C\CCCCCCCC(=O)OC [linoleic acid methyl ester]
- % Acid [3]: 34%

Molecule: CCCCC/C=C\C/C=C\CCCCCCCC(=O)O [linoleic acid]
- % Acid [3]: 21%

Molecule: CC/C=C\C/C=C\C/C=C\CCCCCCCC(=O)O [linolenic acid]
- % Acid [3]: 13%

Molecule: CCCCCCCCCCCCCCCCCC(=O)OCC(O)CO (centres unmarked) [monostearin]
- % Acid [3]: 31%

Molecule: CCCCO [n-Butanol]
- Relative Rate [1]: 0

Molecule: CCCCCCO [n-Hexanol]
- Relative Rate [1]: 0

Molecule: CCCCCCCCO [n-Octanol]
- Relative Rate [1]: 0

Molecule: CCCCCCCC/C=C\CCCCCCCC(=O)OCC [oleic acid ethyl ester]
- % Acid [4]: 52%
- % ee S-acid (None = CSC-2 alone): 96%
- Rate (as E158): 4

Molecule: CCCCCCCC/C=C\CCCCCCCC(=O)OC [oleic acid methyl ester]
- % Acid [4]: 51%
- % ee S-acid (None = CSC-2 alone): 97%
- Rate (as E158): 3

Molecule: CCCCCCCC/C=C\CCCCCCCC(=O)O [oleic acid]
- Final % Acid [5]: 39%
- Rate [5]: 1.2 µmol/h/mg
- % Acid [4]: 47%
- % ee S-acid (None = CSC-2 alone): 96%
- Rate (as E158): 3
- Isolated % ee (S-Acid) (extraction procedure I for oleic acid and corn oil, II for the others): 88%

Molecule: CCCC(=O)OCC(COC(=O)CCC)OC(=O)CCC [tributyrin]
- % Acid [3]: 3%

Molecule: CCCCC/C=C\C/C=C\CCCCCCCC(=O)OCC(COC(=O)CCCCCCC/C=C\C/C=C\CCCCC)OC(=O)CCCCCCC/C=C\C/C=C\CCCCC [trilinoein]
- % Acid [3]: 20%

Molecule: CCCCCCCC/C=C\CCCCCCCC(=O)OCC(COC(=O)CCCCCCC/C=C\CCCCCCCC)OC(=O)CCCCCCC/C=C\CCCCCCCC [triolein]
- % Acid [4]: 38%
- Rate (as E158): 3

Molecule: CCCCCCCCCCCCCCCCCC(=O)OCC(COC(=O)CCCCCCCCCCCCCCCCC)OC(=O)CCCCCCCCCCCCCCCCC [tristearin]
- % Acid [3]: 25%

Molecule: Diolein
- % Acid [4]: 42%
- Rate (as E158): 4

Molecule: POE-2 oleyl ether [Brij 92]
- Relative Rate [6]: 27

Molecule: POE-2 stearyl ether [Brij 72]
- Relative Rate [6]: 106

Molecule: POE-10 oleyl ether [Brij 96]
- Relative Rate [6]: 27

Molecule: POE-10 stearyl ether [Brij 76]
- Relative Rate [6]: 18

Molecule: POE-20 oleyl ether [Brij 99]
- Relative Rate [6]: 15

Molecule: POE-20 stearyl ether [Brij 78]
- Relative Rate [6]: 14

Molecule: POE-23 lauryl ether [Brij 35]
- Relative Rate [6]: 26

Molecule: Span 20
- Relative Rate [6]: 75

Molecule: Span 40
- Relative Rate [6]: 99

Molecule: Span 60
- Relative Rate [6]: 108

Molecule: Span 80
- % Acid (additive 100 ul, 75 mg KPG, no DMF, 20 hours): 27%
- S-acid (% ee) (additive 200 ul): 97
- % Acid (additive 200 ul, 75 mg KPG, 20 hours): 28%
- % Acid (additive 500 ul, 75 mg KPG, 20 hours): 27%
- Relative Rate [6]: 160
